According to ChEMBL document CHEMBL1144201, “Design and synthesis of a series of meta aniline-based LFA-1 ICAM inhibitors” (Bioorg Med Chem Lett, 2008):

Key:
in vivo [1] = conditions: rat, 1 mg/kg
in vivo [2] = conditions: rat, po, 1 mg/kg
in vivo [3] = conditions: rat, 1 mg/kg; remark: listed apart in the source

half-life (in vivo [1]) [h]	bioavailability (in vivo [2]) [%]	clearance (in vivo [3]) [mL/min/kg]	SMILES
1.8	13	8.3	O=C(/C=C/c1ccc(Sc2cccc(N[C@H]3CC[C@@H](C(=O)O)CC3)c2)c(C(F)(F)F)c1C(F)(F)F)N1CCOCC1
4.5	27	–	Nc1cccc(Sc2ccc(/C=C/C(=O)N3CCOCC3)c(C(F)(F)F)c2C(F)(F)F)c1
7	32	–	CC(C)N1CCC(Nc2cccc(Sc3ccc(/C=C/C(=O)N4CCOCC4)c(C(F)(F)F)c3C(F)(F)F)c2)CC1
